Results from patent publication US9834558B2, “Substituted bridged urea analogs as sirtuin modulators” (GLAXOSMITHKLINE LLC, priority 2013, dated 2017).

These compounds were tested against T1, SIRT1 (Homo sapiens, UniProt Q96EB6) (assay: Trp mass spectrometry assay of SIRT1 activation). Conditions: Trp mass spectrometry assay; EC1.5 = concentration of test compound that results in 150% activation of SIRT1.
T1 sequence (Q96EB6 1-747): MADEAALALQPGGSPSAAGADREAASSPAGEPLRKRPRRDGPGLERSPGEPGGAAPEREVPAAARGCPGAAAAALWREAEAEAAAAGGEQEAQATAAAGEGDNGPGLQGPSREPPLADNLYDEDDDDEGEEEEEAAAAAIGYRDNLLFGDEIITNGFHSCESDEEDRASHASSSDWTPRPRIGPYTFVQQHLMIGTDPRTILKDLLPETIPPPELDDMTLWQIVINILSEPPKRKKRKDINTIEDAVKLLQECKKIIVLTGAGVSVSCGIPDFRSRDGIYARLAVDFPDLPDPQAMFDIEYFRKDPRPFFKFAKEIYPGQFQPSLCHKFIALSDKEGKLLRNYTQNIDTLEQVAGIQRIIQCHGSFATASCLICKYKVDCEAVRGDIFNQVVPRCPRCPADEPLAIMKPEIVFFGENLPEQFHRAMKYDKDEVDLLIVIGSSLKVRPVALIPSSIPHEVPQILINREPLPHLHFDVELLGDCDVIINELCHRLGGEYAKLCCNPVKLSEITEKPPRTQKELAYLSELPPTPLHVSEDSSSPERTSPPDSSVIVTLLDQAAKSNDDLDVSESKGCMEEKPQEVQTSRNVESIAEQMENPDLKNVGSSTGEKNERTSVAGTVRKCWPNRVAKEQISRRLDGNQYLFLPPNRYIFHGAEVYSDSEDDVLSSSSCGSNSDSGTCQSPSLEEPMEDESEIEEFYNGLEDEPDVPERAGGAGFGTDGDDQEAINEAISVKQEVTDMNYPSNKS
Format: biochemical
Procedure, shortened: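 N-terminal His-tagged human SIRT1 (10 nM, E. coli BL21(DE3)) with 0.5 μM Ac-RHKK(Ac)W-NH2 peptide and 120 μM βNAD+, 25 min at 25 °C in HEPES pH 7.5, formic acid stop. OAADPR or deacetylated peptide quantified by mass spectrometry; EC1.5 (50% activity increase over control) and Percent Maximum Activation reported.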
In the case of O=C(Nc1cncc(F)c1)N1c2nc(-c3cccc(C(F)(F)F)c3)ccc2S(=O)(=O)N2CC[C@H]1C2 [Example 460], the “Tryp AVG EC1.5 (μM)” value is reported as “B (B (EC1.5 1-25 μM))”.
With O=C(Nc1cnccn1)N1c2nc(-c3ccc(Cl)c(Cl)c3)ccc2N2CC[C@H]1C2 [Example 461] the “Tryp AVG EC1.5 (μM)” value was “A (A (EC1.5<1 μM))”.
For O=C(Nc1cnccn1)N1c2nc(-c3ccnc(N4CC[C@@H](F)C4)c3)ccc2N2CC[C@H]1C2 [Example 462], the “Tryp AVG EC1.5 (μM)” value was “B (B (EC1.5 1-25 μM))”.
With O=C(Nc1ccc(F)cn1)N1c2nc(-c3ccnc(N4CC[C@H](F)C4)c3)ccc2N2CC[C@H]1C2 [Example 463] the “Tryp AVG EC1.5 (μM)” value was “A (A (EC1.5<1 μM))”.
In the case of O=C(Nc1cncc(F)c1)N1c2nc(-c3ccnc(N4CC[C@@H](F)C4)c3)ccc2N2CC[C@H]1C2 [Example 464], the “Tryp AVG EC1.5 (μM)” value is reported as “B (B (EC1.5 1-25 μM))”.
For Cc1ccc(-c2ccc3c(n2)N(C(=O)Nc2ccccn2)[C@H]2CCCN3C2)cn1 [Example 465], the “Tryp AVG EC1.5 (μM)” value was “B (B (EC1.5 1-25 μM))”.
For Cc1nc(NC(=O)N2c3nc(-c4cccnc4)ccc3N3CCC[C@H]2C3)sc1C [Example 466], the “Tryp AVG EC1.5 (μM)” value was “B (B (EC1.5 1-25 μM))”.
For Cc1ccc(-c2ccc3c(n2)N(C(=O)Nc2cccnn2)[C@H]2CCCN3C2)cn1 [Example 467], the “Tryp AVG EC1.5 (μM)” value was “B (B (EC1.5 1-25 μM))”.
With Cc1cc(-c2ccc3c(n2)N(C(=O)Nc2ccncn2)[C@H]2CCN3C2)ccn1 [Example 468] the “Tryp AVG EC1.5 (μM)” value was “B (B (EC1.5 1-25 μM))”.
O=C(Nc1cncc(F)c1)N1c2nc(N3CC[C@H](F)C3)ccc2S(=O)(=O)N2CC[C@H]1C2 [Example 469] was tested, and the “Tryp AVG EC1.5 (μM)” value was “C (C (EC1.5>25 μM))”.
In the case of O=C(Nc1ccccn1)N1c2nc(-c3cncc(F)c3)ccc2N2CCC[C@H]1C2 [Example 470], the “Tryp AVG EC1.5 (μM)” value is reported as “A (A (EC1.5<1 μM))”.
In the case of Cc1nc(NC(=O)N2c3nc(-c4cncc(F)c4)ccc3N3CCC[C@H]2C3)sc1C [Example 471], the “Tryp AVG EC1.5 (μM)” value is reported as “B (B (EC1.5 1-25 μM))”.
For O=C(Nc1cnccn1)N1c2nc(-c3cccc(C(F)(F)F)c3)ccc2N2CCC1CC2 [Example 472], the “Tryp AVG EC1.5 (μM)” value was “A (A (EC1.5<1 μM))”.
With O=C(Nc1cccc(-c2cnco2)c1)N1c2nc(-c3cccc(C(F)(F)F)c3)ccc2N2CCC1CC2 [Example 473] the “Tryp AVG EC1.5 (μM)” value was “A (A (EC1.5<1 μM))”.
In the case of O=C(Nc1ccc(F)cn1)N1c2nc(-c3ccnc(N4CC[C@@H](F)C4)c3)ccc2N2CC[C@H]1C2 [Example 474], the “Tryp AVG EC1.5 (μM)” value is reported as “A (A (EC1.5<1 μM))”.
With O=C(Nc1cncc(F)c1)N1c2nc(-c3ccnc(N4CC[C@H](F)C4)c3)ccc2N2CC[C@H]1C2 [Example 475] the “Tryp AVG EC1.5 (μM)” value was “A (A (EC1.5<1 μM))”.
With Cc1nc(NC(=O)N2c3nc(-c4ccccc4C#N)ccc3N3CCC[C@H]2C3)sc1C [Example 476] the “Tryp AVG EC1.5 (μM)” value was “B (B (EC1.5 1-25 μM))”.
For Cc1ccc(-c2ccc3c(n2)N(C(=O)Nc2cncc(F)c2)[C@H]2CCCN3C2)cn1 [Example 477], the “Tryp AVG EC1.5 (μM)” value was “B (B (EC1.5 1-25 μM))”.
COc1cc(NC(=O)N2c3nc(-c4ccc(C)nc4)ccc3N3CCC[C@H]2C3)ncn1 [Example 478] was tested, and the “Tryp AVG EC1.5 (μM)” value was “B (B (EC1.5 1-25 μM))”.
Cc1ccc(-c2ccc3c(n2)N(C(=O)Nc2ccncn2)[C@H]2CCCN3C2)cn1 [Example 479] was tested, and the “Tryp AVG EC1.5 (μM)” value was “B (B (EC1.5 1-25 μM))”.
For Cc1cc(-c2ccc3c(n2)N(C(=O)Nc2cccc(-c4cnco4)c2)[C@H]2CCN3C2)ccn1 [Example 480], the “Tryp AVG EC1.5 (μM)” value was “A (A (EC1.5<1 μM))”.
Cc1cc(-c2ccc3c(n2)N(C(=O)Nc2nc(C)c(C)s2)[C@H]2CCN3C2)ccn1 [Example 481] was tested, and the “Tryp AVG EC1.5 (μM)” value was “A (A (EC1.5<1 μM))”.
In the case of Cc1cc(-c2ccc3c(n2)N(C(=O)Nc2cnn(C)c2)[C@H]2CCN3C2)ccn1 [Example 482], the “Tryp AVG EC1.5 (μM)” value is reported as “B (B (EC1.5 1-25 μM))”.
With Cc1cc(-c2ccc3c(n2)N(C(=O)Nc2ccc4nn(C)cc4c2)[C@H]2CCN3C2)ccn1 [Example 483] the “Tryp AVG EC1.5 (μM)” value was “A (A (EC1.5<1 μM))”.
In the case of CN1CCCN(c2ccc3c(n2)N(C(=O)Nc2ccncn2)[C@H]2CCCN3C2)CC1 [Example 484], the “Tryp AVG EC1.5 (μM)” value is reported as “C (C (EC1.5>25 μM))”.
O=C(Nc1cccnc1)N1c2nc(-c3cccc(C(F)(F)F)c3)ccc2N2CCC1CC2 [Example 485] was tested, and the “Tryp AVG EC1.5 (μM)” value was “A (A (EC1.5<1 μM))”.
In the case of Cc1nn(C)c(C)c1-c1ccc2c(n1)N(C(=O)Nc1cccnc1)[C@H]1CCN2C1 [Example 486], the “Tryp AVG EC1.5 (μM)” value is reported as “C (C (EC1.5>25 μM))”.
For CCCn1cc(-c2ccc3c(n2)N(C(=O)Nc2cccnc2)[C@H]2CCN3C2)cn1 [Example 487], the “Tryp AVG EC1.5 (μM)” value was “B (B (EC1.5 1-25 μM))”.
Cc1nn(C)cc1-c1ccc2c(n1)N(C(=O)Nc1cccnc1)[C@H]1CCN2C1 [Example 488] was tested, and the “Tryp AVG EC1.5 (μM)” value was “B (B (EC1.5 1-25 μM))”.
For Cc1c(-c2ccc3c(n2)N(C(=O)Nc2cccnc2)[C@H]2CCN3C2)cnn1C [Example 489], the “Tryp AVG EC1.5 (μM)” value was “B (B (EC1.5 1-25 μM))”.
Cc1[nH]ncc1-c1ccc2c(n1)N(C(=O)Nc1cccnc1)[C@H]1CCN2C1 [Example 490] was tested, and the “Tryp AVG EC1.5 (μM)” value was “B (B (EC1.5 1-25 μM))”.
For O=C(Nc1ccncn1)N1c2nc(N3CCCN(CC(F)(F)F)CC3)ccc2N2CCC[C@H]1C2 [Example 491], the “Tryp AVG EC1.5 (μM)” value was “A (A (EC1.5<1 μM))”.
With O=C(Nc1cc(F)ccn1)N1c2nc(-c3cccc(C(F)(F)F)c3)ccc2N2CCC1CC2 [Example 492] the “Tryp AVG EC1.5 (μM)” value was “A (A (EC1.5<1 μM))”.
O=C(Nc1cccnc1)N1c2nc(-c3cc[nH]n3)ccc2N2CC[C@H]1C2 [Example 493] was tested, and the “Tryp AVG EC1.5 (μM)” value was “B (B (EC1.5 1-25 μM))”.
In the case of CC(C)n1cc(-c2ccc3c(n2)N(C(=O)Nc2cccnc2)[C@H]2CCN3C2)cn1 [Example 494], the “Tryp AVG EC1.5 (μM)” value is reported as “B (B (EC1.5 1-25 μM))”.
Cc1nc(C)c(-c2ccc3c(n2)N(C(=O)Nc2cccnc2)[C@H]2CCN3C2)s1 [Example 495] was tested, and the “Tryp AVG EC1.5 (μM)” value was “B (B (EC1.5 1-25 μM))”.
In the case of O=C(Nc1cccnc1)N1c2nc(-c3cccc(Cl)c3)ccc2N2CCC1CC2 [Example 496], the “Tryp AVG EC1.5 (μM)” value is reported as “A (A (EC1.5<1 μM))”.
In the case of O=C(Nc1cccc(-c2cnco2)c1)N1c2nc(-c3cccc(Cl)c3)ccc2N2CCC1CC2 [Example 497], the “Tryp AVG EC1.5 (μM)” value is reported as “A (A (EC1.5<1 μM))”.
Cc1cc(-c2ccc3c(n2)N(C(=O)Nc2cccnc2)[C@H]2CCN3C2)ccn1 [Example 498] was tested, and the “Tryp AVG EC1.5 (μM)” value was “A (A (EC1.5<1 μM))”.
COc1cncc(NC(=O)N2c3nc(-c4ccnc(C)c4)ccc3N3CC[C@H]2C3)n1 [Example 499] was tested, and the “Tryp AVG EC1.5 (μM)” value was “A (A (EC1.5<1 μM))”.
For COc1cnc(NC(=O)N2c3nc(-c4ccnc(C)c4)ccc3N3CC[C@H]2C3)cn1 [Example 500], the “Tryp AVG EC1.5 (μM)” value was “A (A (EC1.5<1 μM))”.
With COc1nccnc1NC(=O)N1c2nc(-c3ccnc(C)c3)ccc2N2CC[C@H]1C2 [Example 501] the “Tryp AVG EC1.5 (μM)” value was “B (B (EC1.5 1-25 μM))”.
In the case of Cc1cc(-c2ccc3c(n2)N(C(=O)Nc2ccc4c(cnn4C)c2)[C@H]2CCN3C2)ccn1 [Example 502], the “Tryp AVG EC1.5 (μM)” value is reported as “A (A (EC1.5<1 μM))”.
For Cc1cc(-c2ccc3c(n2)N(C(=O)Nc2cncc(C)n2)[C@H]2CCN3C2)ccn1 [Example 503], the “Tryp AVG EC1.5 (μM)” value was “A (A (EC1.5<1 μM))”.
In the case of Cc1cncc(-c2ccc3c(n2)N(C(=O)Nc2ccccn2)[C@H]2CCCN3C2)c1 [Example 504], the “Tryp AVG EC1.5 (μM)” value is reported as “A (A (EC1.5<1 μM))”.
For Cc1ccncc1-c1ccc2c(n1)N(C(=O)Nc1ccccn1)[C@H]1CCCN2C1 [Example 505], the “Tryp AVG EC1.5 (μM)” value was “C (C (EC1.5>25 μM))”.
In the case of Cc1ccc(-c2ccc3c(n2)N(C(=O)Nc2nc(C)c(C)s2)[C@H]2CCCN3C2)cn1 [Example 506], the “Tryp AVG EC1.5 (μM)” value is reported as “A (A (EC1.5<1 μM))”.
For Cc1cncc(-c2ccc3c(n2)N(C(=O)Nc2nc(C)c(C)s2)[C@H]2CCCN3C2)c1 [Example 507], the “Tryp AVG EC1.5 (μM)” value was “A (A (EC1.5<1 μM))”.
Cc1ccncc1-c1ccc2c(n1)N(C(=O)Nc1nc(C)c(C)s1)[C@H]1CCCN2C1 [Example 508] was tested, and the “Tryp AVG EC1.5 (μM)” value was “C (C (EC1.5>25 μM))”.
For Cc1cncc(-c2ccc3c(n2)N(C(=O)Nc2cncc(F)c2)[C@H]2CCCN3C2)c1 [Example 509], the “Tryp AVG EC1.5 (μM)” value was “A (A (EC1.5<1 μM))”.
In the case of Cc1ccncc1-c1ccc2c(n1)N(C(=O)Nc1cncc(F)c1)[C@H]1CCCN2C1 [Example 510], the “Tryp AVG EC1.5 (μM)” value is reported as “B (B (EC1.5 1-25 μM))”.
For COc1cc(NC(=O)N2c3nc(-c4cnccc4C)ccc3N3CCC[C@H]2C3)ncn1 [Example 511], the “Tryp AVG EC1.5 (μM)” value was “C (C (EC1.5>25 μM))”.

Same assay, conditions: Trp mass spectrometry assay; percent maximum fold activation of SIRT1; read-out: Tryp % Fold Act
Compound Cc1cc(-c2ccc3c(n2)N(C(=O)Nc2ccc4nn(C)cc4c2)[C@H]2CCN3C2)ccn1 [Example 483] has an Emax greater than 150%.
O=C(Nc1cc(F)ccn1)N1c2nc(-c3cccc(C(F)(F)F)c3)ccc2N2CCC1CC2 [Example 492] showed an Emax greater than 150%.
